In patent US20140011853A1, “SUBSTITUTED 3-(BIPHENYL-3-YL)-8,8-DIFLUORO-4-HYDROXY-1-AZASPIRO[4.5]DEC-3-EN-2-ONES FOR THERAPY” (BAYER INTELLECTUAL PROPERTY GMBH, priority 2011, published 2014):
Several values for one entry are separate records, joined by “and”; a condition that tells them apart may be missing. Equal values may be shown once.

Key:
human ACC1 = biological target: T1, human ACC1 (Homo sapiens, UniProt Q13085); experiment: Human ACC1 enzyme assay (ADP-Glo); assay type: biochemical; details: ACC 1 IC50, individual measurements
T1 construct: FLAG (C); made in house; host or cells: baculovirus-infected insect cells (Hi5)

MCF7 = experiment: Tumour cell proliferation, CellTiter-Glo, 96-hour incubation, MCF7; assay type: cell-based; details: Homo sapiens, MCF7, 96 h, read-out: MCF7 IC50
Description: In accordance with the invention, the substances were tested in cell-based assays for the ability of the substances of inhibiting tumour cell proliferation after a 96-hour incubation with the substance. Cell viability was tested using the CellTiter-Glo® luminescent cell viability assay (Promega). The cells were sown at a density of 2000-5000 cells/well (depending on the cell line) in 100 μl growth medium on 96-well microtiter plates. For each cell line examined, cells were sown on a separate plate to determine the luminescence at t=0 hours and t=96 hours. After overnight incubation at 37° C., the luminescence values for the t=0 samples were determined. The dose plates for the t=96 hours points in time were treated with substances diluted with growth medium. The cells were then incubated at 37° C. for 96 hours, and the luminescence values for the t=96 hours samples were then determined. For data analysis, the t=0 values were subtracted from the t=96 hours values for treated and untreated samples. The differences in luminescence in percent between substance-treated samples and control values were used to determine the growth inhibition in percent.
The substances were tested in the following cell lines which represent the stated indications in an exemplary manner: […]

[1] = Octanol/water distribution coefficient (logP/D), isocratic HPLC method; assay type: physicochemical; details: pH 7.4
Text: Assay for Determining the Octanol/Water Distribution Coefficient (logP/D):
The distribution coefficient octanol/water P or D is a key parameter for estimating membrane penetration and permeability. It is defined as the ratio of the equilibrium concentrations of a substance in the two-phase system octanol/water.
It is usually stated in form of the decadic logarithm (logP or logD).
logP describes the distribution behaviour of a substance exclusively present in its neutral form. logD describes the distribution behaviour of a substance at a certain pH; depending on the ionization constant pKa of the substance, some of the substance may be present in ionic form, and some in neutral form.
The logP/D of the active compounds was determined using an isocratic HPLC method (HPLC=high performance liquid chromatography) (literature: OECD Guideline for Testing of Chemicals No. 117). The method is based on the correlation of the HPLC retention time of the test substance to that of reference substances with known distribution coefficients.
The test substance was employed as a 10 mM solution in DMSO (DMSO=dimethyl sulphoxide). 10 μl of this solution were made up to 100 μl with a methanol/water mixture in a ratio of 7+3.
The nine reference substances were dissolved individually in methanol. 100 μl each of the stock solutions were added to an HPLC vial and mixed with 300 μl of water.
A formamide solution was used to determine the hold-up time. To this end, 7 mg of formamide were dissolved in 10 ml of methanol. 100 μl of this stock solution were mixed with 500 μl of methanol and 200 μl of water.
All solutions were chromatographed using a flow rate of 1.00 ml/min.
Injection Protocol: formamide, references, test substance 1, test substance 2, . . . , formamide, references.
Evaluation of the retention times was carried out in a diode array detector (DAD) at 200-400 nm Via the molecular mass, the identity of the test substance was checked using the downstream mass spectrometer.
The HPLC run was evaluated using the Waters software Masslynx 4.1.
The logP/D values were calculated using the software “POW Determination” (proprietary development).

[2] = Plasma protein binding by equilibrium dialysis, human; assay type: in vitro ADME; details: read-out: fu (human)
Description: (§1) The binding of test substances to plasma proteins is determined by equilibrium dialysis by means of the Ht-dialysis apparatus (96-well) made of Teflon and a semipermeable membrane (regenerated cellulose, MWCO 12-14K). This separates 150 μl each of a plasma side and a buffer side (50 mM phosphate buffer). The test substance is added in 2 concentrations (usually 3 and 0.3 μM) to the plasma side and binds to plasma proteins. The unbound fraction of the test substance passes through the membrane and is distributed on either side until equilibrium is established (after approx. 6-8 h at 37° C.). The substance concentration on the buffer side and the plasma side is determined by LC-MS analysis. For this, both sides are brought by dilution with buffer or plasma to the same matrix (10% plasma) and then precipitated with methanol. The free (unbound) fraction (fu) is calculated from the quotient of the buffer and plasma concentration. Stability tests and recovery tests are run concurrently as controls. In addition, the substance in buffer is dialysed against buffer, to check the nonspecific binding to apparatus and membrane and establishment of equilibrium. Because during incubation the osmotic pressure of the plasma proteins leads to dilution of the plasma (volume shift), this possible error is determined by weighing blank plasma samples and is included in the calculation of fu. Establishment of equilibrium and plasma stability should have a value not lower than 80% and the recovery should be at least 30%. A free fraction of <1% is regarded as high, between 1 and 10% as moderate and >10% as low plasma protein binding.

[3] = Plasma protein binding by equilibrium dialysis, mouse; assay type: in vitro ADME; details: read-out: fu (mouse)
Description: as §1

Spodoptera frugiperda = Spodoptera frugiperda test (SPODFR spray treatment); assay type: in vivo; details: 500 g/ha, after 7 days
Myzus persicae = experiment: Myzus test (MYZUPE spray treatment); assay type: in vivo; details: Myzus persicae, 144 h, read-out: effect (kill of aphids)
Text: Disks of Chinese cabbage (Brassica pekinensis) infested by all stages of the green peach aphid (Myzus persicae) are sprayed with an active compound formulation of the desired concentration.

human ACC2 = human ACC2 (Homo sapiens, UniProt O00763); experiment: Human ACC2 enzyme assay (ADP-Glo); details: ACC 2 IC50, individual measurements
human ACC2, sequence (O00763 27-2458 limits assumed): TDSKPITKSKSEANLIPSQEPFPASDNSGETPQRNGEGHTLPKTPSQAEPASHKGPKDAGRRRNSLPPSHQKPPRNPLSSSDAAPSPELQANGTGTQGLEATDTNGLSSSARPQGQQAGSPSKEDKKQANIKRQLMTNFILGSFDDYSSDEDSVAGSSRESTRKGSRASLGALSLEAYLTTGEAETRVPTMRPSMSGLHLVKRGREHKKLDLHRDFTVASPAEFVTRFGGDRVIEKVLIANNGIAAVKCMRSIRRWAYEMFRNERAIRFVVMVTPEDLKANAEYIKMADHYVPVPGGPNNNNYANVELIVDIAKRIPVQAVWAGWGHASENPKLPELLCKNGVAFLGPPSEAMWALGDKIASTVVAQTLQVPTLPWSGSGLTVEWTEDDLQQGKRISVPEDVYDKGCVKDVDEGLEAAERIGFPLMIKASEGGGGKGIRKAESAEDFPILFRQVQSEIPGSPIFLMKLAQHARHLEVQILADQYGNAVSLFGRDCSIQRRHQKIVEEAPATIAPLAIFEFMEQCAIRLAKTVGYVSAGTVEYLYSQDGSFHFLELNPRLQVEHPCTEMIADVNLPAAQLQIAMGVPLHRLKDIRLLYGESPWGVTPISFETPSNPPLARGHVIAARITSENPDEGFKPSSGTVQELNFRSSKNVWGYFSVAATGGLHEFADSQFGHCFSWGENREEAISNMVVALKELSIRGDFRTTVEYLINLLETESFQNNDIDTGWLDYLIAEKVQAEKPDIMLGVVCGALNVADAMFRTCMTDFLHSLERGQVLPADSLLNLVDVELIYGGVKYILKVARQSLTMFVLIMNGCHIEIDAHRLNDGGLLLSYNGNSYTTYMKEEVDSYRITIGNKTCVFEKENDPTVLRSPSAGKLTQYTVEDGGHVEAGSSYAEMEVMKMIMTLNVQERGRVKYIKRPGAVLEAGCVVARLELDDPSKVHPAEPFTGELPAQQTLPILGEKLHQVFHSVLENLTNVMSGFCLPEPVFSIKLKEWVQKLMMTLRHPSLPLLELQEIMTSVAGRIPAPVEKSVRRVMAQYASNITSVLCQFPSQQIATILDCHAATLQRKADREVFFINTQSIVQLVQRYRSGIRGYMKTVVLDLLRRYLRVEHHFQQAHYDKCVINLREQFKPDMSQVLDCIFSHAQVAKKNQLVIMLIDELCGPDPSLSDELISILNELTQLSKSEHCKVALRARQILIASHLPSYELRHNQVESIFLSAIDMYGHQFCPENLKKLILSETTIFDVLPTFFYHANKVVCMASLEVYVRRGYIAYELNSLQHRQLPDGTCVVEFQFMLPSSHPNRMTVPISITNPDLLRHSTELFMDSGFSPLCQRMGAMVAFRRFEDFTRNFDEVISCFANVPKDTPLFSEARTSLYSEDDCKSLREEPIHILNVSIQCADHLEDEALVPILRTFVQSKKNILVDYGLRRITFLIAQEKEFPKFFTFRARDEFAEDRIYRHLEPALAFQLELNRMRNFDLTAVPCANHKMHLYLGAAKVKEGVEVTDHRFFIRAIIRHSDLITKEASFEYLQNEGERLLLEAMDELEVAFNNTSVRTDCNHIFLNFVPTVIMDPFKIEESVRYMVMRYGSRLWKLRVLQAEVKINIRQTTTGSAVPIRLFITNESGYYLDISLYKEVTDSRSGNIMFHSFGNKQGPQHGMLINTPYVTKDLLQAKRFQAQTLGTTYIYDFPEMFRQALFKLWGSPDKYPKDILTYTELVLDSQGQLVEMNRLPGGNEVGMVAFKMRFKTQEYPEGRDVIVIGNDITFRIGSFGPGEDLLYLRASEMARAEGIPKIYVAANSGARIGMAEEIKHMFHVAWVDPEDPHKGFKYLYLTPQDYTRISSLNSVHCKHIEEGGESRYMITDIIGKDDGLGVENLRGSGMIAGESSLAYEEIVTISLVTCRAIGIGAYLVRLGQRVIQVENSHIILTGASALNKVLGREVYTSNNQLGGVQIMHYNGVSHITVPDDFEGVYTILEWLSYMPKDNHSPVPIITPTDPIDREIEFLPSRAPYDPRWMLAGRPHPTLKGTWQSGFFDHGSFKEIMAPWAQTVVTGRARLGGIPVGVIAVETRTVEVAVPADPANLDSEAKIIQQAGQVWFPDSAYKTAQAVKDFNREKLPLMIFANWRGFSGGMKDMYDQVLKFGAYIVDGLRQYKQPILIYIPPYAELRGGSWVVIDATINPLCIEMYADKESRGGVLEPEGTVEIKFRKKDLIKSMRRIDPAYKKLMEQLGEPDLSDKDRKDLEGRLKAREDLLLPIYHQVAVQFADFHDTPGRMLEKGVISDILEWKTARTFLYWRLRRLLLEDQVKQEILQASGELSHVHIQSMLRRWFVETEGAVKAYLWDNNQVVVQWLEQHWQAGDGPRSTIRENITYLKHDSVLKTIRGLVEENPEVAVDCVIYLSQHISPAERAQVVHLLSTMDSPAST

| Compound | IC50 (human ACC1) | IC50 (MCF7) [nM] | chromatographic logP [1] | fraction unbound [2] | fraction unbound [3] | effect (kill of caterpillars) (Spodoptera frugiperda) [%] | pest or weed control at 500 g/ha (Myzus persicae) [%] | IC50 (human ACC2) |
| --- | --- | --- | --- | --- | --- | --- | --- | --- |
| Cc1ccc(-c2ccc(Cl)cc2)cc1C1=C(O)C2(CCC(F)(F)CC2)NC1=O [Example 1-2, 3-(4′-Chloro-4-methylbiphenyl-3-yl)-8,8-difluoro-4-hydroxy-1-azaspiro[4.5]dec-3-en-2-one] | 68 nM and 80 nM and 99 nM and 109 nM and 72 nM and 65 nM and 135 nM and 153 nM | 30 | 1.73 | 0.0042 | 0.0349 | 100 | 100 | 2350 nM and 2070 nM and 2450 nM and 2790 nM and 650 nM and 1280 nM and 1230 nM and 1740 nM |
| Cc1ccc(-c2ccc(Cl)c(F)c2)cc1C1=C(O)C2(CCC(F)(F)CC2)NC1=O [Example 1-1, 3-(4′-Chloro-3′-fluoro-4-methylbiphenyl-3-yl)-8,8-difluoro-4-hydroxy-1-azaspiro[4.5]dec-3-en-2-one] | 117 nM and 125 nM and 69 nM and 95 nM and 58 nM and 97 nM and 53 nM and 54 nM | 22 | 1.9 | 0.0035 | 0.0184 | 100 | 90 | 3370 nM and 2110 nM and 2510 nM and 3740 nM and 957 nM and 1910 nM and 2780 nM and 3240 nM |
